Results published in patent US20250352520A1, “USE OF DEXPRAMIPEXOLE FOR THE TREATMENT OF EOSINOPHILIC COPD” (Areteia Therapeutics, Inc., priority 2024, published 2025).
Read-outs that look alike come from different tables or passages of the source.

Columns and labels:
[1] = Phase III, participants with ALS; cited from earlier work
[2] = test system: eosinophils in blood and airways; settings: 150 mg BID dexpramipexole dihydrochloride; up to approximately
[3] = for CT Scan - Mucus Score, Change from Baseline / CT Scan - Mucus Score, Result: Week 16
Description: Mucus dysfunction, a central pathology in patients with COPD, is characterized by excess mucus production, hypersecretion, and reduced clearance, leading to accumulation in the airways as mucus plugs. Computed tomography (CT) scans of individuals with COPD can be assessed by a physician or clinician trained in lung imaging. Mucus plug scoring is assigned based on the number of lung segments with mucus plugs, ranging from 0 (no mucus plugs seen on CT scan) to 20 (all lung segments with mucus plugs).
All eligible participants received inspiratory and expiratory CT scans at Baseline and at Week 16 to assess for changes in mucus plugs and airway architecture (e.g., changes in airway wall thickness).
[…] underwent at CT scan with mucus plug scoring.

[4] = 150 mg BID; participants with ALS and EADs; cited from earlier work
blood eosinophils = test system: blood eosinophils
Protocol: This was a Phase II, open-label, multicenter study in approximately 30 participants aged≥40 to ≤80 years of age with a diagnosis of COPD and a blood eosinophil count of ≥0.30×10^9/L at screening. Some patients with blood eosinophil counts of 0.25-0.299×10^9/L at screening also were included. Participants were treated with 150 mg dexpramipexole BID. […] Informed consent was obtained from participants before the initiation of any study-specific procedures. This study was conducted at approximately 30 sites in the US.
There were three phases to the study: • Screening Phase (Screening Visit through Baseline) Participants underwent screening to assess whether they satisfy the eligibility criteria. […] After the collection of all Baseline assessments, participants began investigational treatment (dexpramipexole 150 mg), BID for 16 weeks. The Week 16 Visit was the Primary Outcome Visit for the study. • Follow-up Phase (Conclusion of Week 16 assessments through Week 20) During this phase, participants had one final phone visit to collect final safety assessments following cessation of investigational product.
The primary endpoint of this study was geometric mean change in the blood AEC from Baseline to Week 16.
Blood eosinophil counts were obtained at every onsite study visit. Samples were collected between 6 AM and 12 noon to minimize diurnal variation.

[5] = Subject 10001-001-0001 (<50% AEC reduction at Week 16), Week 4
[6] = Subject 10001-001-0001 (<50% AEC reduction at Week 16), Week 8
[7] = Subject 10001-001-0001 (<50% AEC reduction at Week 16), Week 12
[8] = Subject 10001-001-0001 (<50% AEC reduction at Week 16), Week 16
[9] = Subject 10001-001-0002 (>=50% AEC reduction at Week 16), Week 4
[10] = Subject 10001-008-0002 (<50% AEC reduction at Week 16), Week 4
[11] = Subject 10001-008-0002 (<50% AEC reduction at Week 16), Week 8
[12] = Subject 10001-008-0002 (<50% AEC reduction at Week 16), Week 12
[13] = Subject 10001-008-0002 (<50% AEC reduction at Week 16), Week 16
[14] = Subject 10001-010-0005 (<50% AEC reduction at Week 16), Week 4
[15] = Subject 10001-010-0005 (<50% AEC reduction at Week 16), Week 8
[16] = Subject 10001-010-0005 (<50% AEC reduction at Week 16), Week 12
[17] = Subject 10001-010-0005 (<50% AEC reduction at Week 16), Week 16
[18] = Subject 10001-022-0001 (>=50% AEC reduction at Week 16), Week 4
[19] = Subject 10001-022-0001 (>=50% AEC reduction at Week 16), Week 8
[20] = Subject 10001-022-0001 (>=50% AEC reduction at Week 16), Week 12
[21] = Subject 10001-022-0001 (>=50% AEC reduction at Week 16), Week 16
[22] = Subject 10001-022-0006 (<50% AEC reduction at Week 16), Week 4
[23] = Subject 10001-022-0006 (<50% AEC reduction at Week 16), Week 12
[24] = Subject 10001-022-0006 (<50% AEC reduction at Week 16), Week 16
[25] = Subject 10001-024-0002 (>=50% AEC reduction at Week 16), Week 4
[26] = Subject 10001-024-0002 (>=50% AEC reduction at Week 16), Week 8
[27] = Subject 10001-024-0002 (>=50% AEC reduction at Week 16), Week 12
[28] = Subject 10001-024-0002 (>=50% AEC reduction at Week 16), Week 16

CCCN[C@@H]1CCc2nc(N)sc2C1 [Dexpramipexole, (6R)-2-amino-4,5,6,7-tetrahydro-6-(propylamino)benzothiazole]
absolute eosinophil count (AEC) [1]: substantial, durable, and targeted reduction | efficacy in ALS [1]: failed to demonstrate efficacy | reductions of eosinophils in blood and airways [2]: ≤ 80% | CT Scan - Mucus Score, Change from Baseline ([3]; Subject ID 10001-001-0001): 0.00 | CT Scan - Mucus Score, Result ([3]; Subject ID 10001-001-0001): 1.00 | CT Scan - Mucus Score, Change from Baseline ([3]; Subject ID 10001-001-0002): 0.00 | CT Scan - Mucus Score, Result ([3]; Subject ID 10001-001-0002): 0.00 | CT Scan - Mucus Score, Change from Baseline ([3]; Subject ID 10001-008-0002): 3.00 | CT Scan - Mucus Score, Result ([3]; Subject ID 10001-008-0002): 3.00 | CT Scan - Mucus Score, Change from Baseline ([3]; Subject ID 10001-010-0005): 0.00 | CT Scan - Mucus Score, Result ([3]; Subject ID 10001-010-0005): 0.00 | CT Scan - Mucus Score, Change from Baseline ([3]; Subject ID 10001-022-0001): −4.00 | CT Scan - Mucus Score, Result ([3]; Subject ID 10001-022-0001): 0.00 | CT Scan - Mucus Score, Change from Baseline ([3]; Subject ID 10001-022-0006): 3.00 | CT Scan - Mucus Score, Result ([3]; Subject ID 10001-022-0006): 6.00 | mucus plug score ([3]; one patient, week 16, score of 4 at baseline): 0 | safety profile [4]: favorable safety profile | AEC Ratio to Baseline (blood eosinophils; [5]): 0.70 | AEC Result (blood eosinophils; [5]): 290 cells/uL | AEC Ratio to Baseline (blood eosinophils; [6]): 0.56 | AEC Result (blood eosinophils; [6]): 235 cells/uL | AEC Ratio to Baseline (blood eosinophils; [7]): 0.54 | AEC Result (blood eosinophils; [7]): 224 cells/uL | AEC Ratio to Baseline (blood eosinophils; [8]): 0.62 | AEC Result (blood eosinophils; [8]): 260 cells/uL | AEC Ratio to Baseline (blood eosinophils; [9]): 0.80 | AEC Result (blood eosinophils; [9]): 298 cells/uL | AEC Result (blood eosinophils; Subject 10001-001-0002 (>=50% AEC reduction at Week 16), Week 8): 0 cells/uL | AEC Ratio to Baseline (blood eosinophils; Subject 10001-001-0002 (>=50% AEC reduction at Week 16), Week 8, zero value replaced with 5 cells): 0.01(a) | AEC Result (blood eosinophils; Subject 10001-001-0002 (>=50% AEC reduction at Week 16), Week 12): 0 cells/uL | AEC Ratio to Baseline (blood eosinophils; Subject 10001-001-0002 (>=50% AEC reduction at Week 16), Week 12, zero value replaced with 5 cells): 0.01(a) | AEC Result (blood eosinophils; Subject 10001-001-0002 (>=50% AEC reduction at Week 16), Week 16): 0 cells/uL | AEC Ratio to Baseline (blood eosinophils; Subject 10001-001-0002 (>=50% AEC reduction at Week 16), Week 16, zero value replaced with 5 cells): 0.01(a) | AEC Ratio to Baseline (blood eosinophils; [10]): 0.70 | AEC Result (blood eosinophils; [10]): 218 cells/uL | AEC Ratio to Baseline (blood eosinophils; [11]): 1.08 | AEC Result (blood eosinophils; [11]): 336 cells/uL | AEC Ratio to Baseline (blood eosinophils; [12]): 1.90 | AEC Result (blood eosinophils; [12]): 589 cells/uL | AEC Ratio to Baseline (blood eosinophils; [13]): 1.24 | AEC Result (blood eosinophils; [13]): 384 cells/uL | AEC Ratio to Baseline (blood eosinophils; [14]): 0.94 | AEC Result (blood eosinophils; [14]): 388 cells/uL | AEC Ratio to Baseline (blood eosinophils; [15]): 0.96 | AEC Result (blood eosinophils; [15]): 396 cells/uL | AEC Ratio to Baseline (blood eosinophils; [16]): 0.56 | AEC Result (blood eosinophils; [16]): 231 cells/uL | AEC Ratio to Baseline (blood eosinophils; [17]): 0.64 | AEC Result (blood eosinophils; [17]): 266 cells/uL | AEC Ratio to Baseline (blood eosinophils; [18]): 1.51 | AEC Result (blood eosinophils; [18]): 724 cells/uL | AEC Ratio to Baseline (blood eosinophils; [19]): 0.19 | AEC Result (blood eosinophils; [19]): 90 cells/uL | AEC Ratio to Baseline (blood eosinophils; [20]): 0.01 | AEC Result (blood eosinophils; [20]): 6 cells/uL | AEC Ratio to Baseline (blood eosinophils; [21]): 0.01 | AEC Result (blood eosinophils; [21]): 6 cells/uL | AEC Ratio to Baseline (blood eosinophils; [22]): 1.23 | AEC Result (blood eosinophils; [22]): 676 cells/uL | AEC Ratio to Baseline (blood eosinophils; [23]): 1.07 | AEC Result (blood eosinophils; [23]): 589 cells/uL | AEC Ratio to Baseline (blood eosinophils; [24]): 0.62 | AEC Result (blood eosinophils; [24]): 342 cells/uL | AEC Ratio to Baseline (blood eosinophils; [25]): 0.77 | AEC Result (blood eosinophils; [25]): 192 cells/uL | AEC Ratio to Baseline (blood eosinophils; [26]): 0.77 | AEC Result (blood eosinophils; [26]): 192 cells/uL | AEC Ratio to Baseline (blood eosinophils; [27]): 0.04 | AEC Result (blood eosinophils; [27]): 9 cells/uL | AEC Ratio to Baseline (blood eosinophils; [28]): 0.39 | AEC Result (blood eosinophils; [28]): 98 cells/uL | AEC Observed, Geometric Mean ± GSE (blood eosinophils; Week 4): 353.3 ± 1.22 cells/uL | AEC Observed, Max (blood eosinophils; Week 4): 724 cells/uL | AEC Observed, Median (blood eosinophils; Week 4): 298.0 cells/uL | AEC Observed, Min (blood eosinophils; Week 4): 192 cells/uL | AEC Observed, Q1 (blood eosinophils; Week 4): 218 cells/uL | AEC Observed, Q3 (blood eosinophils; Week 4): 676 cells/uL | AEC Ratio to baseline, Geometric Mean ± GSE (blood eosinophils; Week 4): 0.911 ± 1.1189 | AEC Ratio to baseline, Max (blood eosinophils; Week 4): 1.51 | AEC Ratio to baseline, Median (blood eosinophils; Week 4): 0.799 | AEC Ratio to baseline, Min (blood eosinophils; Week 4): 0.70 | AEC Ratio to baseline, Q1 (blood eosinophils; Week 4): 0.70 | AEC Ratio to baseline, Q3 (blood eosinophils; Week 4): 1.23 | AEC Observed, Geometric Mean ± GSE (blood eosinophils; Week 8): 118.0 ± 1.95 cells/uL | AEC Observed, Max (blood eosinophils; Week 8): 396 cells/uL | AEC Observed, Median (blood eosinophils; Week 8): 212.4 cells/uL | AEC Observed, Min (blood eosinophils; Week 8): 5 cells/uL | AEC Observed, Q1 (blood eosinophils; Week 8): 90 cells/uL | AEC Observed, Q3 (blood eosinophils; Week 8): 336 cells/uL | AEC Ratio to baseline, Geometric Mean ± GSE (blood eosinophils; Week 8): 0.323 ± 1.9860 | AEC Ratio to baseline, Max (blood eosinophils; Week 8): 1.08 | AEC Ratio to baseline, Median (blood eosinophils; Week 8): 0.658 | AEC Ratio to baseline, Min (blood eosinophils; Week 8): 0.01 | AEC Ratio to baseline, Q1 (blood eosinophils; Week 8): 0.19 | AEC Ratio to baseline, Q3 (blood eosinophils; Week 8): 0.96 | AEC Observed, Geometric Mean ± GSE (blood eosinophils; Week 12): 64.9 ± 2.30 cells/uL | AEC Observed, Max (blood eosinophils; Week 12): 589 cells/uL | AEC Observed, Median (blood eosinophils; Week 12): 224.0 cells/uL | AEC Observed, Min (blood eosinophils; Week 12): 5 cells/uL | AEC Observed, Q1 (blood eosinophils; Week 12): 6 cells/uL | AEC Observed, Q3 (blood eosinophils; Week 12): 589 cells/uL | AEC Ratio to baseline, Geometric Mean ± GSE (blood eosinophils; Week 12): 0.167 ± 2.2497 | AEC Ratio to baseline, Max (blood eosinophils; Week 12): 1.90 | AEC Ratio to baseline, Median (blood eosinophils; Week 12): 0.538 | AEC Ratio to baseline, Min (blood eosinophils; Week 12): 0.01 | AEC Ratio to baseline, Q1 (blood eosinophils; Week 12): 0.01 | AEC Ratio to baseline, Q3 (blood eosinophils; Week 12): 1.07 | AEC Observed, Geometric Mean ± GSE (blood eosinophils; Week 16): 82.8 ± 2.06 cells/uL | AEC Observed, Max (blood eosinophils; Week 16): 384 cells/uL | AEC Observed, Median (blood eosinophils; Week 16): 260.0 cells/uL | AEC Observed, Min (blood eosinophils; Week 16): 5 cells/uL | AEC Observed, Q1 (blood eosinophils; Week 16): 6 cells/uL | AEC Observed, Q3 (blood eosinophils; Week 16): 342 cells/uL | AEC Ratio to baseline, Geometric Mean ± GSE (blood eosinophils; Week 16): 0.213 ± 2.0849 | AEC Ratio to baseline, Max (blood eosinophils; Week 16): 1.24 | AEC Ratio to baseline, Median (blood eosinophils; Week 16): 0.620 | AEC Ratio to baseline, Min (blood eosinophils; Week 16): 0.01 | AEC Ratio to baseline, Q1 (blood eosinophils; Week 16): 0.01 | AEC Ratio to baseline, Q3 (blood eosinophils; Week 16): 0.64 | AEC, average, percent of the baseline value (blood eosinophils; Week 16): 21.3 % of the baseline value | subjects classified as AECR≥0.5 (reduction in AEC of ≥50% from baseline at week 16) (blood eosinophils; Week 16): 3 of the 7 subjects
